Bounds are passed on as bounds.

What all share (test): Inhibition of ALDH isoenzymes (NAD(P)H formation at 340 nm, purified recombinant enzyme)
Common to all, as to assay type: biochemical

The target in one assay is T1, ALDH1A2 (Homo sapiens, UniProt O94788).
T1 sequence (O94788 1-518): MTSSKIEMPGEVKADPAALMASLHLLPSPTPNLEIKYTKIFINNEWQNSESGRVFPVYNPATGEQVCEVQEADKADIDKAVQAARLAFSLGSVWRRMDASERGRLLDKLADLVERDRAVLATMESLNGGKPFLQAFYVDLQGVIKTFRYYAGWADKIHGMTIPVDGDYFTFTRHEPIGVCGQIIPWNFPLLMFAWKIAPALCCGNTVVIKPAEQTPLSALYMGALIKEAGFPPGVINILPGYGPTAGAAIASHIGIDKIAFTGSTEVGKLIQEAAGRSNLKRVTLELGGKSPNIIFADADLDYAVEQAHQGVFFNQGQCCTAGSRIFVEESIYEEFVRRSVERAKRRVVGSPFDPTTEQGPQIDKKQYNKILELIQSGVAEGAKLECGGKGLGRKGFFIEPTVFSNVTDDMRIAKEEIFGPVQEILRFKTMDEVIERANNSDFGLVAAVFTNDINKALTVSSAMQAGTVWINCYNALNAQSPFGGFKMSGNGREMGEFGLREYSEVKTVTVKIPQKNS
The note with it: for IC50: 100-200 nM enzyme, 200 μM NAD+, 100 μM propionaldehyde, pH 7.5, 25° C.; for remaining activity at 20 µM: compound at 20 μM, read-out: ALDH1A2 % Control at 20 μM.

For a further assay, the target named is T2, ALDH1A3 (Homo sapiens, UniProt P47895).
T2 sequence (P47895 1-512): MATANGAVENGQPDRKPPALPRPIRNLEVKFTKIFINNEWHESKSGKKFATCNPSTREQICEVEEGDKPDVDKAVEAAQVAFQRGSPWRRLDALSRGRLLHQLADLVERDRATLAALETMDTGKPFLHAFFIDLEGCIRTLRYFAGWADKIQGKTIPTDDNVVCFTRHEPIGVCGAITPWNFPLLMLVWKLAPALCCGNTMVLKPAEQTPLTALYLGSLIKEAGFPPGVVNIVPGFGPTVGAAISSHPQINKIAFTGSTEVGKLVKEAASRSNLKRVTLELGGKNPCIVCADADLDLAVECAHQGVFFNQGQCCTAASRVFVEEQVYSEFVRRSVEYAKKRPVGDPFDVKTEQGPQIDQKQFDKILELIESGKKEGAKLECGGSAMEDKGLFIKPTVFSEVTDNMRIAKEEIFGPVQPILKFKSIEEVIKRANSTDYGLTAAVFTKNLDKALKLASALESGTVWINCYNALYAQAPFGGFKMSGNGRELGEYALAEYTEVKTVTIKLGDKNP
As to conditions: for IC50: 100-200 nM enzyme, 200 μM NAD+, 100 μM propionaldehyde, pH 7.5, 25° C.; for remaining activity at 20 µM: compound at 20 μM, read-out: ALDH1A3 % Control at 20 μM.

In a further assay the target is T3, ALDH1A1 (Homo sapiens, UniProt P00352).
T3 sequence (P00352 1-501): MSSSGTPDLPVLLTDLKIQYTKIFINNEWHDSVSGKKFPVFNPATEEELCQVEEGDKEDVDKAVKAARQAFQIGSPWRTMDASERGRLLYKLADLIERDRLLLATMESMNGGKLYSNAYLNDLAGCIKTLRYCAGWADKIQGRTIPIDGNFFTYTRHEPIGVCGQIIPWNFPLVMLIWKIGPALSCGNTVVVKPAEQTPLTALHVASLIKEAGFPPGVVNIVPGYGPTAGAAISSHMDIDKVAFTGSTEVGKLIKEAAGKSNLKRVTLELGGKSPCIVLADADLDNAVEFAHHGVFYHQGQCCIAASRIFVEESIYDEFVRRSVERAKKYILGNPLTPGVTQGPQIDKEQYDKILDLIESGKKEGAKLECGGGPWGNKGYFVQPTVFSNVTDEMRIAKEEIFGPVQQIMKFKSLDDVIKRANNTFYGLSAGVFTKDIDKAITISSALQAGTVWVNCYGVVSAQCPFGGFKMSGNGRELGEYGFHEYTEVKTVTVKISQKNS
As to conditions: for IC50: 100-200 nM enzyme, 200 μM NAD+, 100 μM propionaldehyde, pH 7.5, 25° C.; for remaining activity at 20 µM: compound at 20 μM, read-out: ALDH1A1 % Control at 20 μM.

Another assay concerns the target T4, ALDH2 (Homo sapiens, UniProt P05091).
T4 sequence (P05091 18-517): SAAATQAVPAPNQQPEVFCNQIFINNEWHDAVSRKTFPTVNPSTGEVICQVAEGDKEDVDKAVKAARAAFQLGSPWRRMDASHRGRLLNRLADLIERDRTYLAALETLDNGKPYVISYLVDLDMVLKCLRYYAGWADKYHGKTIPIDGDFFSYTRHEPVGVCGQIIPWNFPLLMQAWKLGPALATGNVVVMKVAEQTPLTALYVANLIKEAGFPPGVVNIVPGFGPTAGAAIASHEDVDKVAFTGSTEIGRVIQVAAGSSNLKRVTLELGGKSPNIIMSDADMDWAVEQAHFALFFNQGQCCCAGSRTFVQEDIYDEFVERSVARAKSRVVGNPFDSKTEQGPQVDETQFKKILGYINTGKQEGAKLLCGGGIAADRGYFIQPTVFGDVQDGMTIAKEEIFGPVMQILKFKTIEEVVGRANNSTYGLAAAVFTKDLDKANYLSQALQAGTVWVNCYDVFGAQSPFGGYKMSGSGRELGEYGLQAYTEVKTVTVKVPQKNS
The note with it: compound at 20 μM; read-out: ALDH2 % Control at 20 μM.
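Wherever ALDH2 % Control at 20 μM is given: run at 25 °C, started by adding substrate after 2 min preincubation, with 100-200 nM ALDH2, 200 µM NAD+, 100 µM propionaldehyde, 1% DMSO in BES buffer pH 7.5.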

As for `Cc1ccccc1-n1c(SCc2cccc(F)c2)nc2[nH]ncc2c1=O` [Example 1, 6-((3-fluorobenzyl)thio)-5-(o-tolyl)-1H-pyrazolo[3,4-d]pyrimidin-4(5H)-one], the results for the IC50 on ALDH1A2 and at ALDH1A3 were 4.7 µM and more than 20 µM, respectively.

Consider `CCn1ncc2c(=O)n(-c3ccccc3C)c(SCc3cccc(F)c3)nc21` [Example 5, 1-ethyl-6-((3-fluorobenzyl)thio)-5-(o-tolyl)-1H-pyrazolo[3,4-d]pyrimidin-4(5H)-one], for which the figures for the IC50 on ALDH1A1, at ALDH1A2 and on ALDH1A3 were 0.35 µM, 15 µM and more than 10 µM, respectively. Also, the remaining activity at 20 µM at ALDH2 came out at 93%.

Take `CCn1cc2c(=O)n(-c3ccccc3C)c(SCc3cccc(F)c3)nc2n1` [Example 6, 2-ethyl-6-((3-fluorobenzyl)thio)-5-(o-tolyl)-2H-pyrazolo[3,4-d]pyrimidin-4(5H)-one]: the values for the IC50 at ALDH1A1, at ALDH1A2 and on ALDH1A3 were 0.4 µM, 5.2 µM and 7.5 µM, respectively. For the same molecule, the remaining activity at 20 µM on ALDH2 came to 91%.

Take `O=c1c2cnn(C3COC3)c2nc(SCc2cccc(F)c2)n1-c1ccccc1` [Example 18, 6-((3-fluorobenzyl)thio)-1-(oxetan-3-yl)-5-phenyl-H-pyrazolo[3,4-d]pyrimidin-4(5H)-one]: the remaining activity at 20 µM stood at 2% on ALDH1A1, 7% on ALDH1A2 and 9% at ALDH1A3.

As to `Cc1ccccc1-n1c(NCc2cccc(F)c2)nc2[nH]ncc2c1=O` [Example 22, 6-((3-fluorobenzyl)amino)-5-(o-tolyl)-1H-pyrazolo[3,4-d]pyrimidin-4(5H)-one], the remaining activity at 20 µM on ALDH1A1 stood at 61%; at ALDH1A2 it was 96%; on ALDH1A3, 90%; on ALDH2 it was 96%.

On to `Cc1ccccc1-n1c(NCCc2cccc(F)c2)nc2c(cnn2C)c1=O` [Example 23, 6-((3-fluorophenethyl)amino)-1-methyl-5-(o-tolyl)-1H-pyrazolo[3,4-d]pyrimidin-4(5H)-one], for which the remaining activity at 20 µM at ALDH1A1 was determined as 66%; at ALDH1A2 it was 68%; on ALDH1A3, 100%; on ALDH2, 94%.

With `Cc1ccccc1-n1c(OCc2cccc(F)c2)nc2c(cnn2C)c1=O` [Example 24, 6-((3-fluorobenzyl)oxy)-1-methyl-5-(o-tolyl)-1H-pyrazolo[3,4-d]pyrimidin-4(5H)-one], at ALDH1A1, the IC50 came to 1.2 µM. The remaining activity at 20 µM on ALDH1A2 stood at 72%; at ALDH1A3, 66%; at ALDH2, 95%.

For the molecule `Cn1ncc2c(=O)n(-c3ccccc3)c(COc3cccc(F)c3)nc21` [Example 25, 6-((3-fluorophenoxy)methyl)-1-methyl-5-phenyl-1H-pyrazolo[3,4-d]pyrimidin-4(5H)-one], the remaining activity at 20 µM is 24% on ALDH1A1, 65% at ALDH1A2, 83% at ALDH1A3 and 101% on ALDH2.

`Cn1ncc2c(=O)n(-c3ccccc3)c(CNCc3cccc(F)c3)nc21` [Example 26, 6-(((3-fluorobenzyl)amino)methyl)-1-methyl-5-phenyl-1H-pyrazolo[3,4-d]pyrimidin-4(5H)-one]: the remaining activity at 20 µM turned out to be 28% at ALDH1A1, 77% at ALDH1A2, 74% on ALDH1A3 and 98% on ALDH2.

On to `Cc1ccccc1-n1c(SCc2cccc(F)c2)nc2n[nH]c(C)c2c1=O` [Example 39, 6-((3-fluorobenzyl)thio)-3-methyl-5-(o-tolyl)-2H-pyrazolo[3,4-d]pyrimidin-4(5H)-one], for which the IC50 at ALDH1A1 was found to be 1.2 µM. Besides, the remaining activity at 20 µM at ALDH1A2 was determined as 93%; at ALDH1A3 it was 79%; at ALDH2, 95%.

Regarding `Cn1ncc2c(=O)n(C3CCCCC3)c(SCc3cccc(F)c3)nc21` [Example 44, 5-cyclohexyl-6-((3-fluorobenzyl)thio)-1-methyl-1H-pyrazolo[3,4-d]pyrimidin-4(5H)-one], the remaining activity at 20 µM was 37% on ALDH1A1, 36% on ALDH1A2, 43% at ALDH1A3 and 177% on ALDH2.

With `Cn1ncc2c(=O)n(C3CCCC3)c(SCc3cccc(F)c3)nc21` [Example 45, 5-cyclopentyl-6-((3-fluorobenzyl)thio)-1-methyl-1H-pyrazolo[3,4-d]pyrimidin-4(5H)-one], the remaining activity at 20 µM came to 46% on ALDH1A1, 37% at ALDH1A2, 95% on ALDH1A3 and 117% on ALDH2.

For `Cn1ncc2c(=O)n(-c3ccccc3)c(CCc3cccc(F)c3)nc21` [Example 48, 6-(3-fluorophenethyl)-1-methyl-5-phenyl-1H-pyrazolo[3,4-d]pyrimidin-4(5H)-one], the remaining activity at 20 µM at ALDH1A1 was 24%; at ALDH1A3, 26%; on ALDH2, 98%.

On to `Cn1ncc2c(=O)n(-c3ccccc3F)c(SCc3cccc(F)c3)nc21` [Example 56, 6-((3-fluorobenzyl)thio)-5-(2-fluorophenyl)-1-methyl-1H-pyrazolo[3,4-d]pyrimidin-4(5H)-one], for which, at ALDH1A3, the remaining activity at 20 µM was determined as 9%.

With `CC(Sc1nc2c(cnn2C)c(=O)n1-c1ccccc1)c1cccc(O)c1` (stereo not shown) [Example 78, 6-((1-(3-hydroxyphenyl)ethyl)thio)-1-methyl-5-phenyl-1H-pyrazolo[3,4-d]pyrimidin-4(5H)-one], the remaining activity at 20 µM at ALDH1A1 stood at 4%; at ALDH1A2, 0%; at ALDH2 it was 91%.

With `CC(Sc1nc2c(cnn2C)c(=O)n1-c1ccccc1)c1ccccn1` (stereo not shown) [Example 79, 1-methyl-5-phenyl-6-((1-(pyridin-2-yl)ethyl)thio)-1H-pyrazolo[3,4-d]pyrimidin-4(5H)-one], the remaining activity at 20 µM is 9% on ALDH1A1, 1% on ALDH1A2 and 92% at ALDH2.

For `CC(Sc1nc2c(cnn2C)c(=O)n1-c1ccccc1)c1cccnc1` (stereo not shown) [Example 80, 1-methyl-5-phenyl-6-((1-(pyridin-3-yl)ethyl)thio)-1H-pyrazolo[3,4-d]pyrimidin-4(5H)-one], the remaining activity at 20 µM is 6% at ALDH1A1, 7% at ALDH1A2 and 96% at ALDH2.

The IC50 is the midpoint of a concentration-inhibition curve.

Values taken from patent US11944626B2, “Small molecule inhibitors of ALDH and uses thereof” (The Regents of the University of Michigan, priority 2016, dated 2024).
